{
  "source": "patent US10392363B2",
  "about": "“Methods for treating protozoan infections” (Neoculi Pty Ltd., priority 2014, dated 2019)",
  "key": {"[1]": {"experiment": "Exposure in male Swiss outbred mice following IV administration", "type": "in vivo", "settings": "IV 5 mg/kg", "description": "The systemic exposures of NCL026, NCL195, NCL259 and NCL812 were studied in nonfasted male Swiss outbred mice weighing 26.2-32.1 g. Mice had access to food and water ad libitum throughout the pre- and post-dose sampling period. Each compound was administered IV via a bolus injection into the tail vein (vehicle 20% (v/v) DMSO in PEG400, 1 mL/kg dose volume, n=8 mice per compound). […] A maximum of two samples were obtained from each mouse, with samples being taken either via submandibular bleed (approximately 120 μL; conscious sampling) or terminal cardiac puncture (0.6 mL; while mice were anaesthetised using inhaled Isoflurane). No urine samples were collected as mice were housed in bedded cages during the study. Blood was collected directly into polypropylene Eppendorf tubes containing heparin as anticoagulant, and stabilisation cocktail (containing Complete® (a protease inhibitor cocktail with EDTA) and potassium fluoride) to minimise the potential for ex vivo degradation of the test compounds in blood/plasma samples. Once collected, blood samples were centrifuged immediately, supernatant plasma was removed, and stored at −80° C. until analysis by LC-MS using methods standard in the art. Each compound was administered in a vehicle composed of 20% (v/v) DMSO in PEG400. Formulations were prepared by dissolving the compounds in DMSO prior to addition of PEG400. Formulations were not filtered prior to dosing and were administered to mice within 2.5 h of preparation. […] The dose administered to each mouse was calculated on the basis of the measured concentration in the IV formulation, the dose volume and individual mouse body weight. Plasma concentration versus time data were analysed using non-compartmental methods (WinNonlin Version 6.3.0.395). Standard calculations for each pharmacokinetic parameter were calculated using standard methods in the art."}, "[2]": {"experiment": "Solubility estimates using nephelometry", "type": "physicochemical", "settings": "pH 6.5 phosphate buffer", "description": "Compound in DMSO was spiked into either pH 6.5 phosphate buffer or 0.01 M HCl (approx. pH 2.0) with the final DMSO concentration being 1%. Samples were then analysed via Nephelometry to determine a solubility range. (See C. D. Bevan and R. S. Lloyd, Anal. Chem. 2000, 72, 1781-1787)."}, "[3]": {"settings": "values marked a, b are approximations"}},
  "note": "Marks after values point to notes of the source that are not given here.",
  "data": [
    {"compound": "Cl.[H]/N=C(\\N)NN=C(CC1CCCCC1)c1ccc(Cl)cc1", "note": "[NCL259]", "values": [
      {"measurement": "Apparent t1/2", "setting": "[1]; plasma, value marked b is an approximation", "value": 2.9, "unit": "h"},
      {"measurement": "AUC0-inf", "setting": "[1]; [3]", "value": "5.5^a h * μM"},
      {"measurement": "Plasma CL", "setting": "[1]; [3]", "value": "56.0^a mL/min/kg"},
      {"measurement": "Plasma Vss", "setting": "[1]; [3]", "value": "12.8^a L/kg"},
      {"measurement": "kinetic solubility under neutral pH conditions", "setting": "[2]", "value": "more moderate"}
    ]}
  ]
}
